# “And” between values parts separate entries of the source, which are not always exact repeats. Identical values can stand only once. Inconclusive results and toxic doses are left out.
# System: B6C3F1 mice, B16 melanoma ip, median survival T/C
# Assay: NCI In Vivo Anticancer Drug Screen. Data for tumor model B16 Melanoma (intraperitoneal) in B6C3F1 mice
# Details: endpoint: median survival time, higher = longer survival
# Experimental: The antitumor activity of compounds was measured in mice bearing transplantable tumors. Survival or tumor size were measured and the results are expressed as the measurement made in the treated group (T) divided by the measurement made in the vehicle treated control group (C). The tumor model used in this assay is B16 Melanoma (intraperitoneal) in B6C3F1 mice
# [1] = dose: 12.5 mg/kg/injection, schedule: Q01DX009 (ip), vehicle: saline with Tween-80
# [2] = dose: 25.0 mg/kg/injection, schedule: Q01DX009 (ip), vehicle: saline with Tween-80
# [3] = dose: 6.25 mg/kg/injection, schedule: Q01DX009 (ip), vehicle: saline
# [4] = dose: 12.5 mg/kg/injection, schedule: Q01DX009 (ip), vehicle: saline
# [5] = dose: 25.0 mg/kg/injection, schedule: Q01DX009 (ip), vehicle: saline
# [6] = dose: 6.25 mg/kg/injection, schedule: Q01DX009 (ip), vehicle: saline with Tween-80
# [7] = dose: 50.0 mg/kg/injection, schedule: Q01DX009 (ip), vehicle: saline with Tween-80
# [8] = dose: 100.0 mg/kg/injection, schedule: Q01DX009 (ip), vehicle: saline with Tween-80
# [9] = dose: 200.0 mg/kg/injection, schedule: Q01DX009 (ip), vehicle: saline with Tween-80
# [10] = dose: 50.0 mg/kg/injection, schedule: Q01DX009 (ip), vehicle: saline
# [11] = dose: 100.0 mg/kg/injection, schedule: Q01DX009 (ip), vehicle: saline
# [12] = dose: 50.0 mg/kg/injection, schedule: Q01DX009 (ip), vehicle: Klucel (hydroxypropylcellulose) (HPC)
# [13] = dose: 100.0 mg/kg/injection, schedule: Q01DX009 (ip), vehicle: Klucel (hydroxypropylcellulose) (HPC)
# [14] = dose: 400.0 mg/kg/injection, schedule: Q01DX009 (ip), vehicle: saline with Tween-80
# [15] = dose: 25.0 mg/kg/injection, schedule: Q01DX009 (ip), vehicle: Klucel (hydroxypropylcellulose) (HPC)
# [16] = dose: 200.0 mg/kg/injection, schedule: Q01DX009 (ip), vehicle: saline
smiles,measurement,setting,value
COc1cc(C2c3cc4c(cc3C(O)C(CO)C2CO)OCO4)cc(OC)c1OC (centres undefined),T/C,[1],111 % of control and 113 % of control
same,T/C,[2],113 % of control
CCOC(=O)N1CCN(CCCCCOc2ccc(CC(C)(C)C)cc2Cl)CC1,T/C,"dose: 3.13 mg/kg/injection, schedule: Q01DX009 (ip), vehicle: saline",109 % of control
same,T/C,[3],121 % of control
same,T/C,[4],112 % of control
same,T/C,[5],101 % of control
CNC(=O)Oc1ccc(S(=O)(=O)c2ccc(OC(=O)NC)cc2)cc1,T/C,[6],109 % of control
same,T/C,[1],95 % of control
same,T/C,[2],88 % of control and 98 % of control
same,T/C,[7],90 % of control and 96 % of control
same,T/C,[8],86 % of control
Cc1cnc(/C=N\NC(N)=S)c2cccc(N)c12,T/C,"dose: 3.0 mg/kg/injection, schedule: Q01DX009 (ip), vehicle: saline with Tween-80",108 % of control
same,T/C,"dose: 6.0 mg/kg/injection, schedule: Q01DX009 (ip), vehicle: saline with Tween-80",116 % of control
C=C(C)C(=O)N(C)C(C)C(=O)OC1CC(=O)N(C)c2cc(cc(OC)c2Cl)C(OC)C(C)=C/C=C/C(OC)C2(O)CC(OC(=O)N2)C(C)C2OC12C (centres undefined),T/C,"dose: 8.0 micrograms/kg/injection, schedule: Q01DX009 (ip), vehicle: saline",169 % of control
same,T/C,"dose: 16.0 micrograms/kg/injection, schedule: Q01DX009 (ip), vehicle: saline",182 % of control
same,T/C,"dose: 32.0 micrograms/kg/injection, schedule: Q01DX009 (ip), vehicle: saline",180 % of control
O=C(CCl)Oc1ccc(-c2ccccc2)cc1Br,T/C,[7],98 % of control
same,T/C,[8],90 % of control
same,T/C,[9],87 % of control
Clc1ccc2c(Cl)ncnc2c1,T/C,[4],96 % of control
same,T/C,[5],100 % of control
same,T/C,[7],93 % of control
same,T/C,[10],100 % of control
NNC(=O)c1ccncc1,T/C,[3],112 % of control
same,T/C,[4],99 % of control
same,T/C,[5],99 % of control
same,T/C,[10],105 % of control
same,T/C,"dose: 64.0 mg/kg/injection, schedule: Q01DX009 (ip), vehicle: saline",100 % of control
same,T/C,[11],112 % of control
same,T/C,"dose: 128.0 mg/kg/injection, schedule: Q01DX009 (ip), vehicle: saline",99 % of control
CCCCS(=N)(=O)CC[C@H](N)C(=O)O (some centres undefined),T/C,"dose: 445.0 mg/kg/injection, schedule: Q04HX012 (ip), vehicle: water",104 % of control
same,T/C,"dose: 890.0 mg/kg/injection, schedule: Q04HX012 (ip), vehicle: water",107 % of control
O=C(NC(Cc1ccccc1)C(=O)O)OCc1ccccc1 (centres undefined),T/C,[12],99 % of control
same,T/C,[13],102 % of control
CC(=O)Oc1[nH]c(=O)c2cccc3c2c1CCC3,T/C,[14],120 % of control
Oc1c(Cl)cc(Cl)cc1C=NCCSc1ccc(Cl)cc1,T/C,[15],98 % of control and 102 % of control
same,T/C,[12],92 % of control and 102 % of control
same,T/C,[13],113 % of control and 93 % of control
same,T/C,"dose: 200.0 mg/kg/injection, schedule: Q01DX009 (ip), vehicle: Klucel (hydroxypropylcellulose) (HPC)",92 % of control and 103 % of control
c1ccc(CN2CCOC2)cc1,T/C,[4],100 % of control and 101 % of control
same,T/C,[5],101 % of control and 108 % of control
same,T/C,[10],98 % of control and 102 % of control
same,T/C,[11],112 % of control and 102 % of control
same,T/C,[16],113 % of control
CC(NC(=O)c1ccccc1)C(=O)O (centres undefined),T/C,"dose: 40.0 mg/kg/injection, schedule: Q01DX009 (ip), vehicle: saline with Tween-80",97 % of control
same,T/C,"dose: 80.0 mg/kg/injection, schedule: Q01DX009 (ip), vehicle: saline with Tween-80",90 % of control
CS(=O)(=O)CS(=O)(=O)OCCF,T/C,"dose: 3.12 mg/kg/injection, schedule: Q01DX009 (ip), vehicle: saline",107 % of control
same,T/C,"dose: 5.4 mg/kg/injection, schedule: Q01DX009 (ip), vehicle: saline",100 % of control
same,T/C,[3],116 % of control
same,T/C,"dose: 9.0 mg/kg/injection, schedule: Q01DX009 (ip), vehicle: saline",110 % of control and 100 % of control
same,T/C,"dose: 15.0 mg/kg/injection, schedule: Q01DX009 (ip), vehicle: saline",113 % of control and 119 % of control
same,T/C,"dose: 41.67 mg/kg/injection, schedule: Q01DX009 (ip), vehicle: saline",121 % of control and 216 % of control
CC(=O)Nc1cc2oc3ccccc3c2cc1[N+](=O)[O-],T/C,[8],88 % of control
same,T/C,[14],91 % of control
Nc1nc(Cl)c2ncn(C3OC(CO)C(O)C3O)c2n1 (centres undefined),T/C,[8],98 % of control
same,T/C,[9],100 % of control
same,T/C,[14],101 % of control
NC(CC(=O)CCl)C(=O)O (centres undefined),T/C,"dose: 6.25 mg/kg/injection, schedule: Q01DX009 (ip), vehicle: Klucel (hydroxypropylcellulose) (HPC)",106 % of control
same,T/C,"dose: 12.5 mg/kg/injection, schedule: Q01DX009 (ip), vehicle: Klucel (hydroxypropylcellulose) (HPC)",101 % of control
Cc1noc(N)c1N,T/C,"dose: 12.0 mg/kg/injection, schedule: Q01DX009 (ip), vehicle: water",94 % of control
same,T/C,"dose: 25.0 mg/kg/injection, schedule: Q01DX009 (ip), vehicle: water",100 % of control
same,T/C,"dose: 50.0 mg/kg/injection, schedule: Q01DX009 (ip), vehicle: water",106 % of control
same,T/C,"dose: 100.0 mg/kg/injection, schedule: Q01DX009 (ip), vehicle: water",100 % of control
same,T/C,"dose: 200.0 mg/kg/injection, schedule: Q01DX009 (ip), vehicle: water",96 % of control
same,T/C,"dose: 400.0 mg/kg/injection, schedule: Q01DX009 (ip), vehicle: water",90 % of control
CC(SC(C)C(=O)N/N=C/c1ccc(C#N)cc1)C(=O)N/N=C\c1ccc(C#N)cc1 (centres undefined),T/C,[7],92 % of control
same,T/C,[8],88 % of control
same,T/C,[9],87 % of control
same,T/C,[16],88 % of control
O=C1c2cccc(NCCCNCCO)c2C(=O)c2cccc(NCCCNCCO)c21,T/C,"dose: 6.25 mg/kg/injection, schedule: Q01DX009 (ip), vehicle: acid diluted with saline",102 % of control
same,T/C,"dose: 12.5 mg/kg/injection, schedule: Q01DX009 (ip), vehicle: acid diluted with saline",108 % of control
same,T/C,"dose: 25.0 mg/kg/injection, schedule: Q01DX009 (ip), vehicle: acid diluted with saline",154 % of control
C/C=C1\C(=O)O[C@@]23C=C[C@H]4C(C(=O)OC)=CO[C@@H](O[C@H]12)[C@H]43,T/C,"dose: 3.75 mg/kg/injection, schedule: Q01DX009 (ip), vehicle: Klucel (hydroxypropylcellulose) (HPC)",101 % of control
same,T/C,"dose: 7.5 mg/kg/injection, schedule: Q01DX009 (ip), vehicle: Klucel (hydroxypropylcellulose) (HPC)",95 % of control
same,T/C,"dose: 15.0 mg/kg/injection, schedule: Q01DX009 (ip), vehicle: Klucel (hydroxypropylcellulose) (HPC)",95 % of control
CCC(C(=O)O)C(=O)O.[NH-]CC1CCCC[N-]1.[Pt+2],T/C,[3],108 % of control
same,T/C,[4],102 % of control
same,T/C,"dose: 12.5 mg/kg/injection, schedule: Q01DX009 (ip), vehicle: suspension in saline",113 % of control
same,T/C,[5],101 % of control
same,T/C,"dose: 25.0 mg/kg/injection, schedule: Q01DX009 (ip), vehicle: suspension in saline",115 % of control
same,T/C,"dose: 50.0 mg/kg/injection, schedule: Q01DX009 (ip), vehicle: suspension in saline",123 % of control
CCCCCNc1ncnc2c(C)[nH]nc12,T/C,[15],100 % of control
same,T/C,[12],91 % of control
same,T/C,[13],86 % of control
O=S(=O)(O)C1=CC(=N\Cl)/C=CC/1=N/Cl,T/C,"dose: 50.0 mg/kg/injection, schedule: Q01DX009 (ip), vehicle: saline + Tween-80 + alcohol",100 % of control
same,T/C,"dose: 100.0 mg/kg/injection, schedule: Q01DX009 (ip), vehicle: saline + Tween-80 + alcohol",100 % of control
CNc1cccnc1/C=N/NC(N)=S,T/C,[1],119 % of control
same,T/C,[7],159 % of control
same,T/C,[8],151 % of control
CCOC1=Cc2c(oc3c(C(C)(C)C)cc(OCC)cc23)OC(C(C)(C)C)=C1,T/C,"dose: 1.56 mg/kg/injection, schedule: Q01DX009 (ip), vehicle: saline with Tween-80",97 % of control and 107 % of control
same,T/C,"dose: 3.12 mg/kg/injection, schedule: Q01DX009 (ip), vehicle: saline with Tween-80",97 % of control and 104 % of control
same,T/C,[6],102 % of control
same,T/C,[1],97 % of control and 106 % of control
same,T/C,[2],113 % of control and 91 % of control
same,T/C,[7],89 % of control and 101 % of control
[N-]=[N+]=CC(=O)CCC(=O)C=[N+]=[N-],T/C,"dose: 1.56 mg/kg/injection, schedule: Q01DX009 (ip), vehicle: DMSO",124 % of control
Clc1cc(Cl)c(C[N+]23CN4CN(CN(C4)C2)C3)cc1Cl,T/C,[1],101 % of control
same,T/C,[4],102 % of control
same,T/C,[2],105 % of control
same,T/C,[5],100 % of control
same,T/C,[7],102 % of control
same,T/C,[10],106 % of control
same,T/C,[8],107 % of control
same,T/C,[11],111 % of control

# Reference: PubChem BioAssay AID200 (DTP/NCI, 2004)
